Entries after “also recorded” stand apart in the source; their conditions may differ.
What was measured:
[1] = tested on: male ICR mice; assay: Elevated plus maze (EPM) test, intraperitoneal injection; assay type: in vivo, mouse; conditions: for Open-arm residence times and entries compared with BAF: Tables 3 and 4, statistical differences at a low dose; for Efficacy compared with BAF: at low doses; for Closed arm number of entries / Closed arm residence time / Open arm number of entries / Open arm residence time / Open arm/closed arm frequency ratio / Open arm/closed arm time ratio: mice, intraperitoneal, 5 min before entering the maze
Source text: The active ingredient used in the following pharmacological experiment, the compound shown in Formula (I) of the present application, is the final product in Example 1 of the present application, namely (1R,6S,9R)6,10,10-trimethyl-2-(4,4,4-trifluorobutyl)-11-oxatricyclo [7.2.1.0^1,6]dodec-2-ene (hereinafter referred to as Compound 2). Compound 2 and an excipient PVP (povidone K30) were mixed in an ethanol solution in a mass ratio of 1:15, spin-dried, and prepared into a preparation form of Compound 2 (the following Compound 2 refers to the preparation form of Compound 2). The preparation form of which the active ingredient was 4-butyl-α-agarofuran (BAF for short) was used as a positive drug, a preparation method for this preparation was the same as that of the preparation of Compound 2, and the following BAF refers to this preparation of BAF. PVP was a blank control. In addition, the administration dose was calculated according to a crude drug.
This model is one of the most commonly used animal models in the research of antianxiety drugs. The elevated plus maze is composed of an open arm (30×5×0.5 cm) and an closed arm (30×8×15 cm) that are crossed in a positive cross shape, and the instrument is suspended 50 cm above the ground. Due to the narrowness, suspension, and brightness of the open arm, there may be internal “fear” or conflict in the open arm, and on the contrary, it more complies with the nature of rodents in the closed arm. 5 min after administration, a mouse is placed in the center of the maze, and its head faces to the open arm. Open-arm and closed-arm entries and residence times in both arms during the experimental period (usually 5 min) are recorded respectively. The percentages of the open arm entries and the open arm residence times respectively accounting for the total entries (sum of the open arm and closed arm entries) and the total time (sum of the open arm and closed arm residence times) are calculated, as an indicator for evaluating the anxiety. Generally speaking, a drug is considered to have antianxiety effects in the case that the open arm cumulative residence time is prolonged without reducing the open arm and closed arm entries.
The experiment used male Institute of Cancer Research (ICR) mice (purchased from Beijing Weitong Lihua Experimental Animal Technology Co., Ltd.), the weight was 18-20 g, the mice were randomly divided into 7 groups according to the weight, and there were 13 mice in each group. Grip adaptation training was conducted on the mice before the experiment. Before the experiment, the mice were fasted for 12 hours. It was administered by an intraperitoneal injection mode. 4-butyl-α-agarofuran (BAF for short) was used as a positive drug, and PVP was a blank control. The specific grouping and disposal modes are as follows:
During detection, after intraperitoneal injection of BAF/Compound 2, each mouse was immediately placed in an open animal box and allowed to move freely for 5 min, then the mouse was placed on a central platform of the elevated plus maze, its head faced to a fixed open arm. The detection was started, timed for 5 min, and recorded with a supermaze software by using a camera head. After all the experiments were completed, the residence times (s) of the mice in the open arm and the closed arm, the open arm and closed arm entries, and the time ratios and frequency ratios of the open arm and closed arm entries were recorded with the supermaze software. 1 was added to the number of entry arms with a latency of 0.

[2] = Plasma pharmacokinetics after intraperitoneal injection in mouse (UPLC-MS/MS); assay type: in vivo; conditions: for AUC(0-t) / half-life / Cmax: male, ICR; for AUC(0-t) / half-life: plasma; for AUC(0-t): 10 mg/kg, according to the above method, read-out: AUC(0-t); for AUC(0-t) / half-life / Pharmacokinetic properties compared with BAF: mouse; for AUC(0-t) / Pharmacokinetic properties compared with BAF: IP; for half-life / Cmax: IP 10 mg/kg; for Cmax: mouse plasma, prototype drug
Procedure: Positive control drug 4-butyl-α-agarofuran preparation (BAF) and Compound 2 preparation were administered intraperitoneally at a dose of 10 mg/kg/10 ml (calculated according to the crude drug), and a suspension was prepared by ultrasonic grinding with double distilled water. Male ICR mice, with a weight of 21-24 g, were purchased from SPF (Beijing) Biotechnology Co., Ltd.
12 mice were randomly divided into 4 groups, there were 3 parallel cross blood sampling points in each group (5 points in groups 1 and 3, and 6 points in groups 2 and 4), it was administered according to the weight, and blood was collected from the orbital venous plexus at 5 min, 10 min, […], 30 min, 1 h, 2 h, 4 h, 6 h, 8 h, 12 h, and 24 h after administration. The bloods at each time point were collected into Eppendorf (EP) tubes anticoagulated with heparin, and placed on ice and centrifuged at 8000 r/min×5 min, to separate plasma for later use.
20 μl of mouse blank plasma was taken, 55 μl of acetonitrile containing an internal standard solution (200 ng/mL, BAF crude drug and Compound 2 crude drug are mutual internal standards, namely BAF was used as the internal standard of Compound 2, and Compound 2 was used as the internal standard of BAF, similarly hereinafter) is added, 5 μl of a methanol working solution of the compound BAF or Compound 2 with different concentrations was respectively added and mixed uniformly, so that its final plasma concentrations were 0.2, 0.5, 2, 5, 10, 25, 50, 100, 200, 500, 750, and 1000 ng/ml respectively, centrifugation was conducted twice at a high speed of 13000 r/min×5 min, and 5 μl of a supernatant was taken for UPLC-MS/MS analysis.
10 μL of plasma was taken, 30 μL of acetonitrile containing internal standard solution (100 ng/mL) was added to precipitate proteins, after the material was centrifuged twice at a high speed of 13000 r/min×5 min, 5 μl of a supernatant was taken for UPLC-MS/MS analysis.
Chromatographic column: Symmetry C8 (2.1 mm×50 mm, 3.5 μm), column temperature: 25° C., mobile phase: acetonitrile (0.1% formic acid): water (0.1% formic acid)=70:30 gradient elution, flow rate: 0.2 mL/min, Parallel Reaction Monitoring (PRM) detection, BAF: m/z 263.2→245.2; and Compound 2: m/z 317.2→299.2.

Compound | Open-arm residence times and entries compared with BAF [1] | Efficacy compared with BAF [1] | Closed arm number of entries ([1]; 2.4 mg/kg) | Closed arm residence time ([1]; 2.4 mg/kg) [s] | Open arm number of entries ([1]; 2.4 mg/kg) | Open arm residence time ([1]; 2.4 mg/kg) [s] | Open arm/closed arm frequency ratio ([1]; 2.4 mg/kg) | Open arm/closed arm time ratio ([1]; 2.4 mg/kg) | Closed arm number of entries ([1]; 4.8 mg/kg) | Closed arm residence time ([1]; 4.8 mg/kg) [s] | Open arm number of entries ([1]; 4.8 mg/kg) | Open arm residence time ([1]; 4.8 mg/kg) [s] | Open arm/closed arm frequency ratio ([1]; 4.8 mg/kg) | Open arm/closed arm time ratio ([1]; 4.8 mg/kg) | Closed arm number of entries ([1]; 9.6 mg/kg) | Closed arm residence time ([1]; 9.6 mg/kg) [s] | Open arm number of entries ([1]; 9.6 mg/kg) | Open arm residence time ([1]; 9.6 mg/kg) [s] | Open arm/closed arm frequency ratio ([1]; 9.6 mg/kg) | Open arm/closed arm time ratio ([1]; 9.6 mg/kg) | other results
CC1(C)O[C@]23C[C@H]1CC[C@]2(C)CCC=C3CCCCC(F)(F)F [Compound 6, (1R,6S,9R)6,10,10-trimethyl-2-(5,5,5-trifluoropentyl)-11-oxatricyclo [7.2.1.0^1,6]dodec-2-ene] | prolonged | better efficacy | 11.00 ± 0.83 | 129.22 ± 9.33 | 9.11 ± 0.54 | 126.19 ± 8.01 | 0.86 ± 0.07 | 0.98 ± 0.15 | 10.00 ± 0.60 | 154.33 ± 7.85 | 8.88 ± 0.55 | 116.53 ± 6.42 | 0.90 ± 0.05 | 0.78 ± 0.07 | 8.56 ± 1.19 | 140.04 ± 15.48 | 8.78 ± 1.53 | 111.29 ± 11.05 | 1.06 ± 0.13 | 0.91 ± 0.17 | AUC(0-t) [2]: 142 ng·h/mL; half-life [2]: 1.39 h; Cmax [2]: 342 ng/mL; Pharmacokinetic properties compared with BAF [2]: superior to BAF; also recorded: better pharmacokinetic properties
[2H]C1[C@H]2CC[C@]3(C)CC([2H])([2H])C=C(CCCC(F)(F)F)[C@@]13OC2(C)C (stereo partly drawn) [Compound 8, (1R,6R,9R)6,10,10-trimethyl-2-(4,4,4-trifluorobutyl)-4,4,10-trideuterium-11-oxatricyclo [7.2.1.0^1,6]dodec-2-ene] | prolonged | better efficacy | 10.86 ± 1.30 | 126.36 ± 11.90 | 9.43 ± 0.78 | 134.90 ± 9.73 | 0.93 ± 0.10 | 1.20 ± 0.26 | 10.00 ± 0.63 | 147.85 ± 10.01 | 9.10 ± 0.87 | 117.97 ± 8.25 | 0.93 ± 0.10 | 0.88 ± 0.14 | 10.00 ± 1.20 | 139.21 ± 14.30 | 8.70 ± 0.94 | 112.96 ± 9.69 | 0.90 ± 0.07 | 0.93 ± 0.16 | AUC(0-t) [2]: 148 ng·h/mL; half-life [2]: 1.41 h; Cmax [2]: 350 ng/mL; Pharmacokinetic properties compared with BAF [2]: superior to BAF; also recorded: better pharmacokinetic properties

Source: patent US20230391741A1, “AGAROFURAN COMPOUND, PREPARATION METHOD THEREFOR, AND APPLICATION THEREOF” (BEIJING CHY PHARMACEUTICAL TECHNOLOGY CO, LTD., priority 2021, published 2023)
